From ChEMBL document CHEMBL3297661, “1-Substituted-5-[(3,5-dinitrobenzyl)sulfanyl]-1H-tetrazoles and their isosteric analogs: A new class of selective antitubercular agents active against drug-susceptible and multidrug-resistant mycobacteria” (Eur J Med Chem, 2014)
In brackets after ≈: the same amount, converted by molar mass.

Each compound was assayed on Mycobacterium tuberculosis (assay: Antimycobacterial activity against Mycobacterium tuberculosis CNCTC My 331/88 after 14 days by micromethod). Details: CNCTC My 331/88, 336 h.
Format: functional

| SMILES | MIC [µM] |
| --- | --- |
| COc1ccc(-n2nnnc2[S+]([O-])Cc2cc([N+](=O)[O-])cc([N+](=O)[O-])c2)cc1 (stereo not given) | 62 (≈ 25.1 µg/mL) |
| O=[N+]([O-])c1cc(COc2nnnn2-c2ccc(Br)cc2)cc([N+](=O)[O-])c1 | 2 (≈ 0.842 µg/mL) |
| Cc1ccc(-n2nnnc2SCc2cc([N+](=O)[O-])cc([N+](=O)[O-])c2)cc1C | 500 (≈ 193 µg/mL) |
| CSCc1cc([N+](=O)[O-])cc([N+](=O)[O-])c1 | 62 (≈ 14.2 µg/mL) |
| COc1ccc(-n2nnnc2SCc2ccc([N+](=O)[O-])cc2[N+](=O)[O-])cc1 | 8 (≈ 3.11 µg/mL) |

Each compound was assayed on Mycobacterium tuberculosis (assay: Antimycobacterial activity against Mycobacterium tuberculosis CNCTC My 331/88 after 21 days by micromethod). Details: CNCTC My 331/88, 504 h.
Format: functional

| SMILES | MIC [µM] |
| --- | --- |
| COc1ccc(-n2nnnc2[S+]([O-])Cc2cc([N+](=O)[O-])cc([N+](=O)[O-])c2)cc1 (stereo not given) | 62 (≈ 25.1 µg/mL) |
| O=[N+]([O-])c1cc(COc2nnnn2-c2ccc(Br)cc2)cc([N+](=O)[O-])c1 | 4 (≈ 1.68 µg/mL) |
| Cc1ccc(-n2nnnc2SCc2cc([N+](=O)[O-])cc([N+](=O)[O-])c2)cc1C | 500 (≈ 193 µg/mL) |
| CSCc1cc([N+](=O)[O-])cc([N+](=O)[O-])c1 | 125 (≈ 28.5 µg/mL) |
| COc1ccc(-n2nnnc2SCc2ccc([N+](=O)[O-])cc2[N+](=O)[O-])cc1 | 8 (≈ 3.11 µg/mL) |

These compounds were tested on Mycobacterium avium (assay: Antimycobacterial activity against Mycobacterium avium CNCTC My 330/88 after 14 days by micromethod). Details: CNCTC My 330/88, 336 h.
Format: functional

| SMILES | MIC [µM] |
| --- | --- |
| COc1ccc(-n2nnnc2[S+]([O-])Cc2cc([N+](=O)[O-])cc([N+](=O)[O-])c2)cc1 (stereo not given) | 250 (≈ 101 µg/mL) |
| O=[N+]([O-])c1cc(COc2nnnn2-c2ccc(Br)cc2)cc([N+](=O)[O-])c1 | 125 (≈ 52.6 µg/mL) |
| Cc1ccc(-n2nnnc2SCc2cc([N+](=O)[O-])cc([N+](=O)[O-])c2)cc1C | 250 (≈ 96.6 µg/mL) |
| CSCc1cc([N+](=O)[O-])cc([N+](=O)[O-])c1 | 250 (≈ 57.1 µg/mL) |
| COc1ccc(-n2nnnc2SCc2ccc([N+](=O)[O-])cc2[N+](=O)[O-])cc1 | 62 (≈ 24.1 µg/mL) |

Each compound was assayed on Mycobacterium avium (assay: Antimycobacterial activity against Mycobacterium avium CNCTC My 330/88 after 21 days by micromethod). Details: CNCTC My 330/88, 504 h.
Format: functional

| SMILES | MIC [µM] |
| --- | --- |
| COc1ccc(-n2nnnc2[S+]([O-])Cc2cc([N+](=O)[O-])cc([N+](=O)[O-])c2)cc1 (stereo not given) | 250 (≈ 101 µg/mL) |
| O=[N+]([O-])c1cc(COc2nnnn2-c2ccc(Br)cc2)cc([N+](=O)[O-])c1 | 125 (≈ 52.6 µg/mL) |
| Cc1ccc(-n2nnnc2SCc2cc([N+](=O)[O-])cc([N+](=O)[O-])c2)cc1C | 250 (≈ 96.6 µg/mL) |
| CSCc1cc([N+](=O)[O-])cc([N+](=O)[O-])c1 | 250 (≈ 57.1 µg/mL) |
| COc1ccc(-n2nnnc2SCc2ccc([N+](=O)[O-])cc2[N+](=O)[O-])cc1 | 62 (≈ 24.1 µg/mL) |

What follows are compounds tested on Mycobacterium kansasii (assay: Antimycobacterial activity against Mycobacterium kansasii CNCTC My 235/80 after 7 days by micromethod). Details: CNCTC My 235/80, 168 h.
Format: functional

| SMILES | MIC [µM] |
| --- | --- |
| COc1ccc(-n2nnnc2[S+]([O-])Cc2cc([N+](=O)[O-])cc([N+](=O)[O-])c2)cc1 (stereo not given) | 62 (≈ 25.1 µg/mL) |
| O=[N+]([O-])c1cc(COc2nnnn2-c2ccc(Br)cc2)cc([N+](=O)[O-])c1 | 8 (≈ 3.37 µg/mL) |
| Cc1ccc(-n2nnnc2SCc2cc([N+](=O)[O-])cc([N+](=O)[O-])c2)cc1C | 250 (≈ 96.6 µg/mL) |
| CSCc1cc([N+](=O)[O-])cc([N+](=O)[O-])c1 | 62 (≈ 14.2 µg/mL) |
| COc1ccc(-n2nnnc2SCc2ccc([N+](=O)[O-])cc2[N+](=O)[O-])cc1 | 32 (≈ 12.4 µg/mL) |

The compounds below were run on Mycobacterium kansasii (assay: Antimycobacterial activity against Mycobacterium kansasii CNCTC My 235/80 after 14 days by micromethod). Details: CNCTC My 235/80, 336 h.
Format: functional

| SMILES | MIC [µM] |
| --- | --- |
| COc1ccc(-n2nnnc2[S+]([O-])Cc2cc([N+](=O)[O-])cc([N+](=O)[O-])c2)cc1 (stereo not given) | 125 (≈ 50.5 µg/mL) |
| O=[N+]([O-])c1cc(COc2nnnn2-c2ccc(Br)cc2)cc([N+](=O)[O-])c1 | 16 (≈ 6.74 µg/mL) |
| Cc1ccc(-n2nnnc2SCc2cc([N+](=O)[O-])cc([N+](=O)[O-])c2)cc1C | 250 (≈ 96.6 µg/mL) |
| CSCc1cc([N+](=O)[O-])cc([N+](=O)[O-])c1 | 125 (≈ 28.5 µg/mL) |
| COc1ccc(-n2nnnc2SCc2ccc([N+](=O)[O-])cc2[N+](=O)[O-])cc1 | 62 (≈ 24.1 µg/mL) |

Each compound was assayed on Mycobacterium kansasii (assay: Antimycobacterial activity against Mycobacterium kansasii CNCTC My 235/80 after 21 days by micromethod). Details: CNCTC My 235/80, 504 h.
Format: functional

| SMILES | MIC [µM] |
| --- | --- |
| COc1ccc(-n2nnnc2[S+]([O-])Cc2cc([N+](=O)[O-])cc([N+](=O)[O-])c2)cc1 (stereo not given) | 125 (≈ 50.5 µg/mL) |
| O=[N+]([O-])c1cc(COc2nnnn2-c2ccc(Br)cc2)cc([N+](=O)[O-])c1 | 16 (≈ 6.74 µg/mL) |
| Cc1ccc(-n2nnnc2SCc2cc([N+](=O)[O-])cc([N+](=O)[O-])c2)cc1C | 250 (≈ 96.6 µg/mL) |
| CSCc1cc([N+](=O)[O-])cc([N+](=O)[O-])c1 | 250 (≈ 57.1 µg/mL) |
| COc1ccc(-n2nnnc2SCc2ccc([N+](=O)[O-])cc2[N+](=O)[O-])cc1 | 62 (≈ 24.1 µg/mL) |

These compounds were tested on Mycobacterium kansasii (assay: Antimycobacterial activity against Mycobacterium kansasii 6509/96 after 7 days by micromethod). Details: 6509/96, 168 h.
Format: functional

| SMILES | MIC [µM] |
| --- | --- |
| COc1ccc(-n2nnnc2[S+]([O-])Cc2cc([N+](=O)[O-])cc([N+](=O)[O-])c2)cc1 (stereo not given) | 32 (≈ 12.9 µg/mL) |
| O=[N+]([O-])c1cc(COc2nnnn2-c2ccc(Br)cc2)cc([N+](=O)[O-])c1 | 4 (≈ 1.68 µg/mL) |
| Cc1ccc(-n2nnnc2SCc2cc([N+](=O)[O-])cc([N+](=O)[O-])c2)cc1C | 250 (≈ 96.6 µg/mL) |
| CSCc1cc([N+](=O)[O-])cc([N+](=O)[O-])c1 | 125 (≈ 28.5 µg/mL) |
| COc1ccc(-n2nnnc2SCc2ccc([N+](=O)[O-])cc2[N+](=O)[O-])cc1 | 8 (≈ 3.11 µg/mL) |

The compounds below were run on Mycobacterium kansasii (assay: Antimycobacterial activity against Mycobacterium kansasii 6509/96 after 14 days by micromethod). Details: 6509/96, 336 h.
Format: functional

| SMILES | MIC [µM] |
| --- | --- |
| COc1ccc(-n2nnnc2[S+]([O-])Cc2cc([N+](=O)[O-])cc([N+](=O)[O-])c2)cc1 (stereo not given) | 125 (≈ 50.5 µg/mL) |
| O=[N+]([O-])c1cc(COc2nnnn2-c2ccc(Br)cc2)cc([N+](=O)[O-])c1 | 16 (≈ 6.74 µg/mL) |
| Cc1ccc(-n2nnnc2SCc2cc([N+](=O)[O-])cc([N+](=O)[O-])c2)cc1C | 250 (≈ 96.6 µg/mL) |
| CSCc1cc([N+](=O)[O-])cc([N+](=O)[O-])c1 | 250 (≈ 57.1 µg/mL) |
| COc1ccc(-n2nnnc2SCc2ccc([N+](=O)[O-])cc2[N+](=O)[O-])cc1 | 16 (≈ 6.21 µg/mL) |

Each compound was assayed on Mycobacterium kansasii (assay: Antimycobacterial activity against Mycobacterium kansasii 6509/96 after 21 days by micromethod). Details: 6509/96, 504 h.
Format: functional

| SMILES | MIC [µM] |
| --- | --- |
| COc1ccc(-n2nnnc2[S+]([O-])Cc2cc([N+](=O)[O-])cc([N+](=O)[O-])c2)cc1 (stereo not given) | 125 (≈ 50.5 µg/mL) |
| O=[N+]([O-])c1cc(COc2nnnn2-c2ccc(Br)cc2)cc([N+](=O)[O-])c1 | 16 (≈ 6.74 µg/mL) |
| Cc1ccc(-n2nnnc2SCc2cc([N+](=O)[O-])cc([N+](=O)[O-])c2)cc1C | 250 (≈ 96.6 µg/mL) |
| CSCc1cc([N+](=O)[O-])cc([N+](=O)[O-])c1 | 500 (≈ 114 µg/mL) |
| COc1ccc(-n2nnnc2SCc2ccc([N+](=O)[O-])cc2[N+](=O)[O-])cc1 | 32 (≈ 12.4 µg/mL) |
